# According to publication PMC2994217 (British Journal of Cancer, 2010):
# Where two headings read alike, the source gives them in different places.
# Experiments:
# [1] = no reference given, cited from earlier work
# [2] = oral
# Description: Patients were initially treated in cohorts of six per dose level. […] Both drugs were administered orally. […] (Figure 1) The duration of one cycle was 28 days.
# Toxicity was evaluated according to the common toxicity criteria for adverse events (AEs) (CTCAEv3.0).
# [3] = Pharmacokinetics of sirolimus in blood (LC/MS/MS, non-compartmental); type: in vivo, patients; details: for Cmax / AUC(0-t) / half-life: human, whole blood; for half-life: read-out: t ½ (converted)
# From the text: (§1) A paired t-test on log-transformed values was used to calculate changes in AUC, Cmax and t1/2. A P-value ⩽0.05 was considered significant.
# [4] = Pharmacokinetics of sorafenib in plasma (LC/MS/MS, non-compartmental); type: in vivo, patients; details: for Cmax: human, plasma
# From the text: as §1
# [5] = im, 1 mg, DL IM, sor 400 mg b.i.d., sir 1 mg q.d., cycle 1 day 1, single-dose sir, geometric mean (95% CI), n=3
# [6] = im, DL IM, sor 400 mg b.i.d., sir 1 mg q.d., cycle 1 day 16, continuous dosing sor on single-dose sir, geometric mean (95% CI), n=3
# [7] = oral, 1 mg, DL 0, sor 200 mg b.i.d., sir 1 mg q.d., cycle 1 day 1, single-dose sir, geometric mean (95% CI), n=6
# [8] = oral, 2 mg, DL 1, Sor 200 mg b.i.d., sir 2 mg q.d., cycle 1 day 1, single-dose sir, geometric mean (95% CI), n=6
# [9] = oral, DL 0, sor 200 mg b.i.d., sir 1 mg q.d., cycle 1 day 16, continuous dosing sor on single-dose sir, geometric mean (95% CI), n=6
# [10] = oral, DL 1, Sor 200 mg b.i.d., sir 2 mg q.d., cycle 1 day 16, continuous dosing sor on single-dose sir, geometric mean (95% CI), n=6
structure (smiles),measurement,setting,value
CO[C@H]1C[C@@H]2CC[C@@H](C)[C@@](O)(O2)C(=O)C(=O)N2CCCC[C@H]2C(=O)O[C@H]([C@H](C)C[C@@H]2CC[C@@H](O)[C@H](OC)C2)CC(=O)[C@H](C)/C=C(\C)[C@@H](O)[C@@H](OC)C(=O)[C@H](C)C[C@H](C)/C=C/C=C/C=C/1C [sirolimus],time until mean steady-state concentrations are achieved,[1],5 to 7 days
same,terminal half-life,[1]; stable renal transplant recipients,62 ± 12 h
same,"MTD of the combination, sirolimus dose",[2]; combined with sorafenib 200 mg b.i.d.,1 mg q.d.
same,change in mean AUC(0−96 h) of sirolimus,"[3]; DL 0, simultaneous administration of both drugs, P=0.955",no change
same,average reduction of Cmax of sirolimus,"[3]; DL 0, non-significant, P=0.515",18%
same,mean decrease of Cmax of sirolimus,"[3]; DL 1, pre-treatment with 200 mg b.i.d. sorafenib, P=0.006",55%
same,change of mean terminal half-life of sirolimus,"[3]; DL 1, pre-treatment with 200 mg b.i.d. sorafenib, P=0.66",remained unchanged
same,decrease of AUC(0−96 h) of sirolimus,"[3]; DL 1, pre-treatment with 200 mg b.i.d. sorafenib, non-significant, P=0.125",37%
same,average decrease of Cmax of sirolimus,"[3]; DLim, P=0.027",55%
same,average decrease of AUC(0−96 h) of sirolimus,"[3]; DLim, P=0.363",25%
same,Cmax,[3]; [5],7.99 ng/mL
same,AUC(0-t),"[3]; im, 1 mg, DL IM, sor 400 mg b.i.d., sir 1 mg q.d., cycle 1 day 1, single-dose sir, geometric mean (95% CI), n=3, read-out: AUC(0–96 h)",139 ng·h/mL
same,half-life,[3]; [5],38.3 h
same,AUC(0-t),"[3]; im, AUC(0–12 h), DL IM, sor 400 mg b.i.d., sir 1 mg q.d., cycle 2 day 1, continuous sor on continuous sir, geometric mean (95% CI), n=2",101 ng·h/mL
same,AUC(0-t),"[3]; im, AUC(0–12 h), DL IM, sor 400 mg b.i.d., sir 1 mg q.d., cycle 2 day 15, continuous sor on continuous sir, n=2",113 ng·h/mL
same,Cmax,[3]; [6],3.62 ng/mL
same,AUC(0-t),"[3]; im, DL IM, sor 400 mg b.i.d., sir 1 mg q.d., cycle 1 day 16, continuous dosing sor on single-dose sir, geometric mean (95% CI), n=3, read-out: AUC(0–96 h)",104 ng·h/mL
same,half-life,[3]; [6],32.9 h
same,Cmax,"[3]; im, DL IM, sor 400 mg b.i.d., sir 1 mg q.d., cycle 2 day 1, continuous sor on continuous sir, geometric mean (95% CI), n=2",11.2 ng/mL
same,Cmax,"[3]; im, DL IM, sor 400 mg b.i.d., sir 1 mg q.d., cycle 2 day 15, continuous sor on continuous sir, geometric mean (95% CI), n=2",13.7 ng/mL
same,Cmax,[3]; [7],3.81 ng/mL
same,AUC(0-t),"[3]; oral, 1 mg, DL 0, sor 200 mg b.i.d., sir 1 mg q.d., cycle 1 day 1, single-dose sir, geometric mean (95% CI), n=6, read-out: AUC(0–96 h)",91.1 ng·h/mL
same,half-life,[3]; [7],45.5 h
same,Cmax,[3]; [8],5.74 ng/mL
same,AUC(0-t),"[3]; oral, 2 mg, DL 1, Sor 200 mg b.i.d., sir 2 mg q.d., cycle 1 day 1, single-dose sir, geometric mean (95% CI), n=6, read-out: AUC(0–96 h)",124 ng·h/mL
same,half-life,[3]; [8],50.5 h
same,AUC(0-t),"[3]; oral, AUC(0–12 h), DL 0, sor 200 mg b.i.d., sir 1 mg q.d., cycle 2 day 1, continuous sor on continuous sir, geometric mean (95% CI), n=6",59.4 ng·h/mL
same,AUC(0-t),"[3]; oral, AUC(0–12 h), DL 0, sor 200 mg b.i.d., sir 1 mg q.d., cycle 2 day 15, continuous sor on continuous sir, geometric mean (95% CI), n=6",57.8 ng·h/mL
same,AUC(0-t),"[3]; oral, AUC(0–12 h), DL 1, Sor 200 mg b.i.d., sir 2 mg q.d., cycle 2 day 1, continuous sor on continuous sir, geometric mean (95% CI), n=4",88.2 ng·h/mL
same,AUC(0-t),"[3]; oral, AUC(0–12 h), DL 1, Sor 200 mg b.i.d., sir 2 mg q.d., cycle 2 day 15, continuous sor on continuous sir, n=1",84.6 ng·h/mL
same,Cmax,[3]; [9],3.14 ng/mL
same,AUC(0-t),"[3]; oral, DL 0, sor 200 mg b.i.d., sir 1 mg q.d., cycle 1 day 16, continuous dosing sor on single-dose sir, geometric mean (95% CI), n=6, read-out: AUC(0–96 h)",91.7 ng·h/mL
same,half-life,[3]; [9],56.2 h
same,Cmax,"[3]; oral, DL 0, sor 200 mg b.i.d., sir 1 mg q.d., cycle 2 day 1, continuous sor on continuous sir, geometric mean (95% CI), n=6",6.3 ng/mL
same,Cmax,"[3]; oral, DL 0, sor 200 mg b.i.d., sir 1 mg q.d., cycle 2 day 15, continuous sor on continuous sir, geometric mean (95% CI), n=6",6.36 ng/mL
same,Cmax,[3]; [10],2.6 ng/mL
same,AUC(0-t),"[3]; oral, DL 1, Sor 200 mg b.i.d., sir 2 mg q.d., cycle 1 day 16, continuous dosing sor on single-dose sir, geometric mean (95% CI), n=6, read-out: AUC(0–96 h)",78.2 ng·h/mL
same,half-life,[3]; [10],52.5 h
same,Cmax,"[3]; oral, DL 1, Sor 200 mg b.i.d., sir 2 mg q.d., cycle 2 day 1, continuous sor on continuous sir, geometric mean (95% CI), n=5",10 ng/mL
same,Cmax,"[3]; oral, DL 1, Sor 200 mg b.i.d., sir 2 mg q.d., cycle 2 day 15, continuous sor on continuous sir, n=2",17.6 ng/mL
same,effect of sorafenib on AUC(0−96) and Cmax of sirolimus,[3]; overall statement of abstract,reduced
CNC(=O)c1cc(Oc2ccc(NC(=O)Nc3ccc(Cl)c(C(F)(F)F)c3)cc2)ccn1 [sorafenib],elimination half-life,[1],25 to 48 h
same,AUC(0–12 h),"[4]; DL 1, Sor 200 mg b.i.d., sir 2 mg q.d, cycle 2 day 1, continuous sir on continuous sor, geometric mean (95% CI), n=4",39.3 (21–74) (n=4) mg h l^−1
same,mean decrease in AUC(0−12 h) of sorafenib,"[4]; DLim, 1 mg sirolimus with 400 mg b.i.d. sorafenib, non-significant, P=0.14",15%
same,mean decrease in Cmax of sorafenib,"[4]; DLim, 1 mg sirolimus with 400 mg b.i.d. sorafenib, non-significant, P=0.57",8%
same,Cmax,"[4]; im, 400 mg b.i.d., DL IM, Sor 400 mg b.i.d., sir 1 mg q.d., cycle 1 day 15, continuous dosing sor, geometric mean (95% CI), n=4",13000 ng/mL
same,Cmax,"[4]; im, DL IM, Sor 400 mg b.i.d., sir 1 mg q.d., cycle 1 day 16, single-dose sir on continuous dosing sor, geometric mean (95% CI), n=4",11900 ng/mL
same,Cmax,"[4]; im, DL IM, Sor 400 mg b.i.d., sir 1 mg q.d., cycle 2 day 1, continuous sir on continuous sor, geometric mean (95% CI), n=4",6640 ng/mL
same,Cmax,"[4]; im, DL IM, Sor 400 mg b.i.d., sir 1 mg q.d., cycle 2 day 15, continuous sir on continuous sor, geometric mean (95% CI), n=2",5550 ng/mL
same,Cmax,"[4]; oral, 200 mg b.i.d., DL 0, Sor 200 mg b.i.d., sir 1 mg q.d., cycle 1 day 15, continuous dosing sor, geometric mean (95% CI), n=6",7590 ng/mL
same,Cmax,"[4]; oral, DL 0, Sor 200 mg b.i.d., sir 1 mg q.d., cycle 2 day 1, continuous sir on continuous sor, geometric mean (95% CI), n=6",7120 ng/mL
same,Cmax,"[4]; oral, DL 0, Sor 200 mg b.i.d., sir 1 mg q.d., cycle 2 day 15, continuous sir on continuous sor, geometric mean (95% CI), n=6",7320 ng/mL
same,Cmax,"[4]; oral, DL 1, Sor 200 mg b.i.d., sir 2 mg q.d, cycle 2 day 1, continuous sir on continuous sor, geometric mean (95% CI), n=4",5150 ng/mL
same,effect of sirolimus on the PK of sorafenib,[4]; overall statement of abstract,did not change
same,influence of sirolimus on AUC(0−12 h) of sorafenib,"[4]; single oral doses of 1 mg or 2 mg sirolimus, sorafenib 200 mg b.i.d. multiple dosing, P=0.67",did not influence
same,influence of sirolimus on Cmax of sorafenib,"[4]; single oral doses of 1 mg or 2 mg sirolimus, sorafenib 200 mg b.i.d. multiple dosing, P=0.96",did not influence
same,"MTD of the combination, sorafenib dose",[2]; combined with sirolimus 1 mg q.d.,200 mg b.i.d.
